From patent US12605382B2, “Pharmaceutical composition for preventing, alleviating, or treating cancer containing 2,6-dichloro-4-(4-(4-hydroxycyclohexylamino)-7H- pyrrolo[2,3-d]pyrimidin-5-yl)phenol as active ingredient” (JBKLAB CO., LTD., priority 2021, dated 2026)

Tests used:
MDA-MB-453 = experiment: Cell viability, breast cancer cell line; format: cell-based; conditions: MDA-MB-453, 24 hours, dose dependently
Procedure: (§1) FIGS. 4A-4C show the cell viability of MDA-MB-231, MDA-MB-453, and BT-20 after 24 hours of treatment with the compound of Example 1. As shown in FIGS. 4A-4C, it was confirmed that the cell viability was suppressed not only in general breast cancer cell lines, but also in TNBC cell lines dose dependently.

[1] = test system: breast cancer cells (MBA-MB-231); experiment: Xenograft tumor growth inhibition, TNBC cells in nude mice; format: in vivo; conditions: xenograft Balb/c nude mice, tumor size measured for 3 weeks
Procedure: An experiment was performed to confirm the tumor inhibition of the compound of Example 1, the active ingredient of the pharmaceutical composition of the present invention, on a xenograft tumor sample of breast cancer cells (MBA-MB-231), a human-derived TNBC cell line.
Specifically, to confirm the […] inhibitory effect of the compound of Example 1, the active ingredient of the pharmaceutical composition of the present invention, on breast cancer cell viability, an experiment was performed using 80 female 5-week-old xenograft Balb/c nude mice, which were approximately 8 weeks old at the start of administration.
The experimental xenograft Balb/c nude mice lacks T cells, the immune cells, were selected as an animal model suitable for transplanting human cancer cells. At the time of administration, animals within ±20% of the total average body weight were selected, and tumor growth was checked twice a week on the surface, and the size of the tumor was measured with a vernier caliper for 3 weeks.

[2] = test system: 4T1 murine triple negative breast cancer cells; experiment: Tumor size in triple-negative breast cancer allograft mouse model; format: in vivo, BALB/c mice; conditions: 10 mg/kg intravenously
Procedure: (§2) 4T1 murine triple negative breast cancer cells (6×10^5 cells) were injected into the hind limbs of 6-week-old immune-competent BALB/c mice. Seven days after injection, after confirming consistent tumor growth, 10 mice from each group were selected and used in subsequent experiments.
(§3) The experimental groups consisted of a control group (no treatment), a radiotherapy group, a group treated with the compound of Example 1, and a group treated with a combination of the compound of Example 1 and radiotherapy. Each treatment was carried out for 31 days after tumor implantation.
(§4) Radiation treatment was performed using electron beams, and a total of 24 Gy was irradiated three times, once every two days for one week (Days 10, 12, and 14) (8 Gy×3). The compound of Example 1 was administered intravenously at a dose of 10 mg/kg once every 2 or 3 days (Days 10, 12, 14, 17, 19, and 21) for a total of 6 times over 2 weeks. On the days when radiation therapy and drug administration were conducted simultaneously, the compound of Example 1 was administered after confirming that the mice had recovered from anesthesia 4 hours after radiation therapy.
On each treatment day, the length and width of the tumor were measured using a vernier caliper, and then the tumor volume (mm^3) was calculated using mathematical formula 1 below. Volume (mm^3)=length (mm)×{width (mm)}^2×0.5 [Mathematical Formula 1]

[3] = test system: tumor tissues (MDA-MB-231); experiment: Number of apoptotic bodies in tumor tissues; format: in vivo, BALB/c-nude mice; conditions: for number of apoptotic body: sum of five areas at ×400
Procedure: An experiment was performed to confirm the tumor necrosis effect of the compound of Example 1, the active ingredient of the pharmaceutical composition of the present invention, by measuring the number of apoptotic bodies in tumors and H&E staining of the tumor tissues in BALB/c-nude mice injected with cancer cell lines.
Specifically, to measure the number of apoptotic bodies in the tumor tissues of the T4, T5, and T6 groups of Experimental Example 1, five areas where the tumor tissues were growing were randomly selected and the number of apoptotic bodies was measured at ×400 magnification. The sum of the measurements was calculated, expressed as individual values, and statistically compared using GraphPad Prism 5.

MDA-MB-231 = experiment: Cell viability assay (WST-8), TNBC cell line; format: cell-based, human; conditions: dose dependently
Procedure: An experiment was performed to confirm the growth inhibitory effect of the compound of Example 1, the active ingredient of the pharmaceutical composition of the present invention, on breast cancer cell lines through cell viability assay.
Specifically, the cell viability assay was performed as follows. BT20, a human-derived breast cancer cell line, and MDA-MB-231, a TNBC cell line, were each seeded in 96-well plates at the density of 5×10^3 cells/well and cultured for 24 hours. Then, I-bet 762 and the compound of Example 1 were treated thereto at different concentrations and cultured for 48 hours. At the end of the culture, 100 μl of WST-8 solution was added to each well of the plate, and the absorbance was measured with a microplate reader using a 450 nm optical filter to measure the formazan produced by the reducing factors in living cells.
as §1

Hep3B = experiment: WST-8 cell viability assay, hepatocellular carcinoma cell line; format: cell-based
Procedure: (§5) Specifically, the WST-8 assay to check the cell viability of HepG2 and Hep3B, which are hepatocellular carcinoma cell lines shown in FIGS. 7A-7C and 8A-8C, was performed as follows. HepG2 and Hep3B were each seeded in 96-well plates at the density of 5×10^3 cells/well and cultured for 24 hours. Then, Sorafenib and OPT-0139 were diluted stepwise at a twofold concentration and then treated to the plates at different concentrations, followed by culture for 24, 48, and 72 hours. […] of WST-8 solution was added to each well of the plate, and the absorbance was measured with a microplate reader using a 450 nm optical filter to measure the formazan produced by the reducing factors in living cells.
(§6) Therefore, the number of living cells could be measured by measuring absorbance.

HepG2 = experiment: as above; format: cell-based
Procedure: as §5, §6

breast cancer cell line = experiment: Formation of mammospheres in a breast cancer cell line; format: cell-based
[4] = test system: 4T1 murine triple negative breast cancer cells; experiment: Lung metastasis in triple-negative breast cancer allograft mouse model; format: in vivo, BALB/c mice; conditions: 31st day
Procedure: as §2, §3, §4
Mice were prepared in the same manner as in Example 8, and the lungs of the mice were removed on the 31st day after tumor injection, and the results of observing lung metastasis are shown in FIG. 13.

SK Hep1 = experiment: Cell viability alone and in combination with sorafenib; format: cell-based, Human
Procedure: (§7) Human liver cancer cell lines (SK Hep1 and Huh-7) were treated with control (no treatment), 0.1 μM of the compound of Example 1, 1 μM of sorafenib, and 0.1 μM of the compound of Example 1/1 μM of sorafenib, and the cell viability of SK Hep1 and Huh-7 was confirmed.

Huh-7 = experiment: as above; format: cell-based, Human
Procedure: as §7

[5] = 0.1 μM Example 1 combined with 1 μM sorafenib

With `Oc1c(Cl)cc(-c2c[nH]c3ncnc(N[C@H]4CC[C@H](O)CC4)c23)cc1Cl` [Example 1, (trans)-2,6-dichloro-4-(4-(4-hydroxycyclohexylamino)-7H-pyrrolo[2,3-d]pyrimidin-5-yl)phenol] the cell viability (MDA-MB-453) was “suppressed”, the tumor growth [1] was “significantly inhibit the tumor growth” and the “tumor growth compared to control group” value ([2]; alone, 6 times over 2 weeks, observed 31 days) was “significantly delayed the tumor growth”. For the same compound, the “tumor growth compared to each administration alone” value ([2]; combined with radiation (8 Gy×3), 6 times) was “superior inhibitory effect on the tumor growth”, the “number of apoptotic bodies compared to NC (Negative Control)” value ([3]; T4, T5 and T6 groups, dose dependently) was “higher” and the “number of apoptotic body” value ([3]; T4: 5 mg/kg once i.v.) was 9.6 ± 4.7. The “number of apoptotic body” value ([3]; T5: 10 mg/kg once i.v.) was 9.2 ± 4.6, the “number of apoptotic body” value ([3]; T6: 20 mg/kg once i.v.) was 13.6 ± 7.4 and the cell viability (MDA-MB-231; MDA-MB-231, 24 hours) was “suppressed”. The cell viability (MDA-MB-231; MDA-MB-231, 48 hours) was “inhibited the cell viability”, the “effect on cell viability compared to Sorafenib” value (Hep3B) was “remarkable effect compared to Sorafenib” and the cell viability (Hep3B; 24, 48 and 72 hours) was “decreased the cell viability dose and time dependently”. The “effect on cell viability compared to Sorafenib” value (HepG2) was “remarkable effect compared to Sorafenib”, the cell viability (HepG2; 24, 48 and 72 hours) was “decreased the cell viability dose and time dependently” and the formation of mammospheres (breast cancer cell line) was “inhibits”. For the same compound, the “lung metastasis compared to control group” value ([4]; alone, 10 mg/kg intravenously) was “significantly reduced metastasis”, the “lung metastases compared to each administration alone” value ([4]; combined with radiation (8 Gy×3)) was “significantly (P<0.05) reduced lung metastases” and the cell viability (SK Hep1; [5]) was “further inhibited (synergistic effect)”. For the same compound, the cell viability (SK Hep1; 0.1 μM alone) was “suppressed”, the cell viability (Huh-7; [5]) was “further inhibited (synergistic effect)” and the cell viability (Huh-7; 0.1 μM alone) was “suppressed”.
